Target: T1, HGFR (Homo sapiens, UniProt P08581)
T1 construct: purchased Upstate 14-526
Experiment: HGFR continuous-coupled spectrophotometric assay
Type: biochemical
Conditions: at 1 pM; Table 6, library procedure 41; read-out: % Inhibition (percent c-MET inhibition)

T1 sequence (P08581 974-1390 limits assumed): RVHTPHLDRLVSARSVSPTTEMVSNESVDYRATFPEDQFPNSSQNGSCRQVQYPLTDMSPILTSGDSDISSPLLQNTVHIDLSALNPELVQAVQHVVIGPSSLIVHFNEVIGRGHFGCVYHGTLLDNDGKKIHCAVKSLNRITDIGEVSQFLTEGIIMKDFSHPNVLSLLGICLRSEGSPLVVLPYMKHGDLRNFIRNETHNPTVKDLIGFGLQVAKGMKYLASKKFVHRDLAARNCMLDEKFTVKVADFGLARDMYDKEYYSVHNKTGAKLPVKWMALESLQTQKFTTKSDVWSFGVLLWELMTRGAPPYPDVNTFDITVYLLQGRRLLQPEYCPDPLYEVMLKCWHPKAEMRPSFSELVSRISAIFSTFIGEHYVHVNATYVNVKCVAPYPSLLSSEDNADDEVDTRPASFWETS

In order of rising inhibition at 1 pM:
1. Nc1ncc(C(=O)N[C@@H]2c3ccccc3C[C@@H]2O)cc1OCc1c(Cl)cccc1Cl [Example L-230]  23%
2. Nc1ncc(C(=O)NCc2ccc(OC(F)(F)F)cc2)cc1OCc1c(Cl)cccc1Cl [Example L-226]  24%
3. Nc1ncc(C(=O)NC[C@H]2CCCC[C@H]2O)cc1OCc1c(Cl)cccc1Cl [Example L-228]  24%
4. Nc1ncc(C(=O)N[C@@H]2CCCC[C@H]2CO)cc1OCc1c(Cl)cccc1Cl [Example L-229]  24%
5. COc1cc(CCNC(=O)c2cnc(N)c(OCc3c(Cl)cccc3Cl)c2)cc(OC)c1O [Example L-247]  25%
6. CC(C)CCNC(=O)c1cnc(N)c(OCc2c(Cl)cccc2Cl)c1 [Example L-222]  26%
7. COc1ccc(C(NC(=O)c2cnc(N)c(OCc3c(Cl)cccc3Cl)c2)C2CC2)cc1 [Example L-208]  27%
8. COCCN1CCN(C(=O)c2cnc(N)c(OCc3c(Cl)cccc3Cl)c2)CC1 [Example L-248]  27%
9. CN(CCC(O)c1ccccc1)C(=O)c1cnc(N)c(OCc2c(Cl)cccc2Cl)c1 [Example L-246]  28%
10. NC(=O)CCNC(=O)c1cnc(N)c(OCc2c(Cl)cccc2Cl)c1 [Example L-253]  28%
11. NC(=O)N1CCN(C(=O)c2cnc(N)c(OCc3c(Cl)cccc3Cl)c2)CC1 [Example L-216]  29%
12. CN(C)CCNC(=O)c1cnc(N)c(OCc2c(Cl)cccc2Cl)c1 [Example L-221]  29%
13. Nc1ncc(C(=O)NCCc2c[nH]c3ccc(O)cc23)cc1OCc1c(Cl)cccc1Cl [Example L-223]  29%
14. Nc1ncc(C(=O)NCC(O)c2ccc(O)cc2)cc1OCc1c(Cl)cccc1Cl [Example L-251]  29%
15. Nc1ncc(C(=O)NCC(F)(F)F)cc1OCc1c(Cl)cccc1Cl [Example L-224]  30%
16. CN(CC#N)C(=O)c1cnc(N)c(OCc2c(Cl)cccc2Cl)c1 [Example L-237]  30%
17. Nc1ncc(C(=O)NCCc2ccncc2)cc1OCc1c(Cl)cccc1Cl [Example L-240]  30%
18. CCCC(CO)NC(=O)c1cnc(N)c(OCc2c(Cl)cccc2Cl)c1 [Example L-241]  30%
19. Nc1ncc(C(=O)N2CCN(CCCO)CC2)cc1OCc1c(Cl)cccc1Cl [Example L-209]  31%
20. Nc1ncc(C(=O)N2CCN(CC(=O)N3CCOCC3)CC2)cc1OCc1c(Cl)cccc1Cl [Example L-211]  31%
21. CC(=O)N(C)C1CCN(C(=O)c2cnc(N)c(OCc3c(Cl)cccc3Cl)c2)C1 [Example L-213]  31%
22. CN1CCN(C(=O)c2cnc(N)c(OCc3c(Cl)cccc3Cl)c2)CC1 [Example L-205]  32%
23. Nc1ncc(C(=O)N2CCN(CC(=O)N3CCCC3)CC2)cc1OCc1c(Cl)cccc1Cl [Example L-206]  32%
24. Nc1ncc(C(=O)NCc2ccc(F)cc2)cc1OCc1c(Cl)cccc1Cl [Example L-220]  32%
25. COc1cc(CCNC(=O)c2cnc(N)c(OCc3c(Cl)cccc3Cl)c2)ccc1O [Example L-233]  32%
26. C[C@@H]1CN(C(=O)c2cnc(N)c(OCc3c(Cl)cccc3Cl)c2)C[C@H](C)O1 [Example L-243]  32%
27. Nc1ncc(C(=O)NCc2cccc(OC(F)F)c2)cc1OCc1c(Cl)cccc1Cl [Example L-249]  32%
28. Nc1ncc(C(=O)N2CCC(C(=O)c3ccccc3)CC2)cc1OCc1c(Cl)cccc1Cl [Example L-252]  32%
29. Nc1ncc(C(=O)N2CCN(CCOCCO)CC2)cc1OCc1c(Cl)cccc1Cl [Example L-202]  33%
30. CCN(CC)C(=O)C1CCCN(C(=O)c2cnc(N)c(OCc3c(Cl)cccc3Cl)c2)C1 [Example L-203]  33%
31. Nc1ncc(C(=O)N2CCCCC2CCO)cc1OCc1c(Cl)cccc1Cl [Example L-207]  33%
32. Cc1cnc(CNC(=O)c2cnc(N)c(OCc3c(Cl)cccc3Cl)c2)cn1 [Example L-215]  33%
33. CN1CCC(N(C)C(=O)c2cnc(N)c(OCc3c(Cl)cccc3Cl)c2)C1 [Example L-225]  33%
34. Nc1ncc(C(=O)N2CCCC(O)C2)cc1OCc1c(Cl)cccc1Cl [Example L-236]  33%
35. CN(C)C1CCN(C(=O)c2cnc(N)c(OCc3c(Cl)cccc3Cl)c2)C1 [Example L-244]  33%
36. Nc1ncc(C(=O)NCc2ccc(F)cc2F)cc1OCc1c(Cl)cccc1Cl [Example L-245]  33%
37. Nc1ncc(C(=O)NCCCN2CCCC2=O)cc1OCc1c(Cl)cccc1Cl [Example L-217]  34%
38. Nc1ncc(C(=O)NCCc2ccc(O)cc2)cc1OCc1c(Cl)cccc1Cl [Example L-219]  34%
39. Nc1ncc(C(=O)NCC2COc3ccccc3O2)cc1OCc1c(Cl)cccc1Cl [Example L-234]  34%
40. Nc1ncc(C(=O)NCCO)cc1OCc1c(Cl)cccc1Cl [Example L-239]  34%
41. CC(CCCC(C)(C)O)NC(=O)c1cnc(N)c(OCc2c(Cl)cccc2Cl)c1 [Example L-218]  35%
42. CC(O)CCNC(=O)c1cnc(N)c(OCc2c(Cl)cccc2Cl)c1 [Example L-238]  35%
43. Nc1ncc(C(=O)NCCc2c[nH]c3ccc(Cl)cc23)cc1OCc1c(Cl)cccc1Cl [Example L-212]  36%
44. CC(NC(=O)c1cnc(N)c(OCc2c(Cl)cccc2Cl)c1)c1ccc(O)cc1 [Example L-235]  36%
45. Nc1ncc(C(=O)NCc2ccc(F)cc2Cl)cc1OCc1c(Cl)cccc1Cl [Example L-250]  37%
46. CC(C)(CO)CNC(=O)c1cnc(N)c(OCc2c(Cl)cccc2Cl)c1 [Example L-210]  39%
47. CN(CC(N)=O)C(=O)c1cnc(N)c(OCc2c(Cl)cccc2Cl)c1 [Example L-259]  39%
48. Nc1ncc(C(=O)N2CCC(CO)CC2)cc1OCc1c(Cl)cccc1Cl [Example L-257]  43%
49. CC(CN(C)C)NC(=O)c1cnc(N)c(OCc2c(Cl)cccc2Cl)c1 [Example L-254]  45%
50. CCCOCCNC(=O)c1cnc(N)c(OCc2c(Cl)cccc2Cl)c1 [Example L-255]  45%
51. Nc1ncc(C(=O)N2CCC(CCO)CC2)cc1OCc1c(Cl)cccc1Cl [Example L-258]  45%
52. CC(C)OCCNC(=O)c1cnc(N)c(OCc2c(Cl)cccc2Cl)c1 [Example L-256]  46%
53. CC(O)CNC(=O)c1cnc(N)c(OCc2c(Cl)cccc2Cl)c1 [Example L-214]  49%
54. Nc1ncc(C(=O)N2CCN(CCO)CC2)cc1OCc1c(Cl)cccc1Cl [Example L-204]  51%
55. Nc1ncc(C(=O)N2CCC(O)(Cc3ccccc3)CC2)cc1OCc1c(Cl)cccc1Cl [Example L-231]  62%
56. Nc1ncc(C(=O)NCCOc2ccccc2)cc1OCc1c(Cl)cccc1Cl [Example L-242]  66%
57. Nc1ncc(C(=O)N2CCC(O)C2)cc1OCc1c(Cl)cccc1Cl [Example L-227]  83%

Same assay, conditions: read-out: % Inhibition (percent c-MET inhibition)

`Nc1ncc(C(=O)N2CCC(=O)CC2)cc1OCc1c(Cl)cccc1Cl` [Example L-232] was tested, and the inhibition at 1 pM was 44%.

Source: patent publication US20050009840A1 (SUGEN, INC., priority 2003, published 2005)
